Experimental data published in patent publication US4534971A, “Complexation of anthracycline and anthraquinone antibiotics by the apo riboflavin binding protein from eggs” (Regents of the University of Minnesota, priority 1982, dated 1985).
Entries after “also recorded” stand apart in the source; their conditions may differ. Where two headings read alike, the source gives them in different places.

How the values were obtained:
[1] = target: T1, apo riboflavin binding protein from eggs (Gallus gallus, UniProt P02752); test: Titration of antibiotic with egg riboflavin binding protein; dissociation constant; set-up: species or system chicken
T1 construct: obtained in homogeneous form from chicken egg white; from tissue; host or cells: chicken egg white
T1 sequence (P02752 18-238): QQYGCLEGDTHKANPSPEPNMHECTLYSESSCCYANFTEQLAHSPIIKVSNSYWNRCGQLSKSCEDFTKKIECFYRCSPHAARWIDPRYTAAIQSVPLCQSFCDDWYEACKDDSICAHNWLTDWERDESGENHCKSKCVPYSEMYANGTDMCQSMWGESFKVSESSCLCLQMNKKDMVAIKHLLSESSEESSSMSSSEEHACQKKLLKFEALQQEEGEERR
Experimental: The purified protein may be stored, for example, frozen at -20° C. in 10 mM potassium phosphate, 1 mM EDTA pH 7.0 buffer, at concentrations between about 1 and 10 mM.
A working solution of adriamycin was obtained by dissolution in warm 0.035M potassium phosphate pH 7.0 buffer containing 0.15M NaCl and 0.5 mM EDTA and cooled to ambient temperature (24±2° C.). To a 3.0 mL solution containing 3 μM adriamycin was added 5.0 μL increments of a 0.49 mM binding protein solution in 10 mM potassium phosphate, 1 mM EDTA pH 7.0 buffer.
Daunomycin was dissolved in warm buffer, followed by cooling. […] AD-32 was dissolved in dimethylformamide.
The binding protein affinity of three anthracyclinones was determined: (±)-aklavinone, 7-deoxydaunomycinone and iso-7-deoxydaunomycinone. Aklavinone and 7-deoxydaunomycinone were made as concentrated solutions in dimethylformamide, and the solution concentrations determined by dilution into alcohol. Leuco iso-7-deoxydaunomycinone was dissolved in dimethylformamide and diluted into buffer. The general procedure of Example 1 was followed.
Solutions were prepared and admixed as previously described.

[2] = target: T1, apo riboflavin binding protein from eggs; test: Anaerobic dithionite redox titration of the daunomycin-binding protein complex; set-up: species or system chicken
Description: A further use of the antibiotic-protein complex is in redox titrations. Aqueous redox titrations of anthracyclines cannot be done. Although anthracycline glycosides are water soluble, loss of the glycoside (with its positive charge) provides the almost completely water insoluble 7-deoxyanthracyclinones. Unfortunately, glycoside loss is an integral aspect of anthracycline redox chemistry. The binding protein-anthracyclinecomplex has been used for anaerobic aqueous redox titrations. Dithionite reduction of the anthracycline glycoside provides, in a 2e^- process, the 7-deoxyanthracyclinone, via reductive elimination. The bound 7-deoxyanthracyclinone is then further 2e^- reduced to the bound hydroquinone. Semi-quinone radical intermediates are observed transiently; these are stable neither in solution nor complexed to the binding protein. Oxidation of the hydroquinone is accomplished by several reagents (oxygen, hydrogen peroxide, ferricyanide, cytochrome c). In the case of 7-deoxydaunomycinone hydroquinone, a mixture of two products is produced upon oxidation; these are the chromo 7-deoxydaunomycinone (identical to the first 2e^- reduction intermediate) and its leuco isomer, 8-acetyl-7,8,9,10-tetrahydro-5,8,12-trihydroxy-1-methoxy-6,11-napthacenedione(iso-7-deoxydaunomycinone).
An anaerobic redox titration of the daunomycin-binding protein complex was done. […]

[3] = Stability of free and binding protein-complexed compound (isomerization, light, storage); format: physicochemical
Description: Also of interest is the high affinity of the binding protein for iso-7-deoxydaunomycinone(8-acetyl-7,8,9,10-tetrahydro-5,8,12-trihydroxy-1- methoxy-6,11-napthacenedione). This compound is a kinetic product of 7-deoxydaunomycinone hydroquinone oxidation.
An anaerobic redox titration of the daunomycin-binding protein complex was done. The reducing agent used was dithionite anion. Spectrophotometric titrations were made on a Cary 219 spectrophotometer. Anaerobic titrations were done with gas tight syringes, with the deoxygenated solutions maintained under a positive pressure of O2 -free nitrogen. Dithionite was freshly prepared in O2 -free buffer and standardized by anaerobic riboflavin titration. Equilibration with dithionite is in all instances complete in seconds. […] Assignment of structure to this titration intermediate was confirmed by its isolation, and chromatographic comparison with an authentic sample. Further dithionite addition reduces the bound 7-deoxydaunomycinone to a new chromophore (λmax =407 nm). The hydroquinone is not further reduced, but is very easily oxidized upon mixing with oxidants such as oxygen, hydrogen peroxide, ferricyanide and cytochrome c. The absorption spectrum obtained following complete oxygen oxidation of the hydroquinone is different than any previous spectrum. Longer wavelength features, indicating the presence of 7-deoxydaunomycinone, are seen but a new chromophore (λmax approximately 445 nm) is also present. The structure of the compound corresponding to this chromophore is iso-7-deoxydaunomycinone on the basis of its spectroscopic data. In neutral aqueous buffer in the absence of the binding protein this compound promptly isomerizes to 7-deoxydaunomycinone (k=6×10^-4 s^-1). […] Binding protein stabilization is also reflected in an estimated 10-fold slower rate of dithionite reduction of the iso-7-deoxydaunomycinone compared to either 7-deoxydaunomycinone or daunomycin.

[4] = general procedure of Example 1, read-out: Kd (anthracycline glycosides, Examples 2-7)
[5] = general procedure of Example 1, read-out: Kd (anthracyclinones, Examples 8-10)
[6] = spectrophotometric, solutions prepared and admixed as previously described, read-out: Kd (anthraquinones and anthraquinone-like molecules, Examples 11-15)

| Structure (SMILES) | Kd [1] [µM] | binding to the binding protein (in words) [1] | also measured |
| --- | --- | --- | --- |
| CC[C@@]1(O)C[C@H](O)c2c(cc3c(c2O)C(=O)c2c(O)cccc2C3=O)[C@H]1C(=O)OC (relative stereo) [(±)-Aklavinone] | 0.02 | both enantiomers of the racemic aklavinone (7S, 9R, 10R, and 7R, 9S, 10S) are equally well bound | – |
| CC(=O)[C@]1(O)Cc2c(O)c3c(c(O)c2[C@@H](O[C@H]2C[C@H](N)[C@H](O)[C@H](C)O2)C1)C(=O)c1ccccc1C3=O [4-Demethoxydaunomycin] | – | bind with an affinity hardly different than that of adriamycin | Kd [1, 4]: 0.3 µM |
| CC(=O)[C@@]1(O)Cc2c(O)c3c(c(O)c2[C@H](O[C@H]2C[C@H](N)[C@H](O)[C@H](C)O2)C1)C(=O)c1ccccc1C3=O [7,9-Diepi-4-demethoxydaunomycin] | – | binds most tightly of all | Kd [1, 4]: 0.08 µM |
| COc1cccc2c1C(=O)c1c(O)c3c(c(O)c1C2=O)C[C@@](O)(C(C)=O)CC3 [7-Deoxydaunomycinone] | – | – | Kd [1, 5]: 0.08 µM |
| CCCCC(=O)OCC(=O)[C@]1(O)Cc2c(O)c3c(c(O)c2[C@@H](O[C@H]2C[C@H](NC(=O)C(F)(F)F)[C@H](O)[C@H](C)O2)C1)C(=O)c1c(OC)cccc1C3=O [AD-32, N-trifluoroacetyl-14-valeryl-adriamycin] | – | binds well; also recorded: tight binding | formation of AD-32-binding protein complex ([1]; concentrated DMF solution added to slight molar excess of apo protein, approximately 20 μM each): quantitative formation of the AD-32-binding protein complex |
| CC[C@@]1(O)C[C@H](O[C@H]2C[C@H](N(C)C)[C@H](O[C@H]3C[C@H](O)[C@H](O[C@H]4CCC(=O)[C@H](C)O4)[C@H](C)O3)[C@H](C)O2)c2c(cc3c(c2O)C(=O)c2c(O)cccc2C3=O)[C@H]1C(=O)OC [Aclacinomycin A] | 1 | bind with an affinity hardly different than that of adriamycin | binding to the binding protein (in words) ([1]; listed as aclacinomycin A): tight binding |
| COc1cccc2c1C(=O)c1c(O)c3c(c(O)c1C2=O)C[C@@](O)(C(=O)CO)C[C@@H]3O[C@H]1C[C@H](N)[C@H](O)[C@H](C)O1 [Adriamycin] | 0.5 ± 0.1 | good binding | – |
| Cc1c(C(=O)O)c(O)cc2c1C(=O)c1c(O)c([C@@H]3O[C@H](CO)[C@@H](O)[C@H](O)[C@H]3O)c(O)c(O)c1C2=O [Carminic acid] | – | neither tetracycline nor carminic acid (an insect feeding deterrent) bind | Kd [1, 6]: > 250 µM |
| CN(C)CCCN1c2ccccc2Sc2ccc(Cl)cc21 [Chlorpromazine] | – | high affinity | Kd [1, 6]: ~1 µM |
| O=C1c2c(O)ccc(O)c2C(=O)c2c(NCCNCCO)ccc(NCCNCCO)c21 [DHAQ, 1,4-dihydroxy-5,8-bis[[2-(hydroxyethyl)amino]ethyl]-9. 10-anthracenedione] | – | bound weakly | Kd [1, 6]: 60 µM |
| COc1cccc2c1C(=O)c1c(O)c3c(c(O)c1C2=O)C[C@@](O)(C(C)=O)C[C@@H]3O[C@H]1C[C@H](N)[C@H](O)[C@H](C)O1 [Daunomycin] | 0.4 | bind with an affinity hardly different than that of adriamycin | redox behaviour in titration (in words) ([2]; anaerobic, dithionite, oxidation by oxygen, hydrogen peroxide, ferricyanide, cytochrome c): first converted in a 2e^- process to 7-deoxydaunomycinone, with reductive elimination of the glycoside |
| COc1cccc2c(O)c3c(c(O)c12)C(=O)C1=C(C[C@@](O)(C(C)=O)CC1)C3=O [Iso-7-deoxydaunomycinone, 8-acetyl-7,8,9,10-tetrahydro-5,8,12-trihydroxy-1-methoxy-6,11-napthacenedione] | – | high affinity; also recorded: preferentially bound by the riboflavin binding protein | Kd [1, 5]: 0.02 µM; stability (in words) ([3]; complexed to the binding protein): stable in organic solvents and when complexed to the binding protein; also recorded: stable for days; stability (in words) ([3]; free compound, aqueous buffer or organic solvents): not stable in aqueous buffer to isomerization to 7-deoxydaunomycinone; also recorded: stable in organic solvents; rate constant k of isomerization to 7-deoxydaunomycinone ([3]; neutral aqueous buffer, absence of the binding protein): 0.0006 s⁻¹; slower rate of dithionite reduction compared to either 7-deoxydaunomycinone or daunomycin ([2]; binding protein stabilization, estimated): ~10 fold |
| COC(=O)[C@@H]1c2cc3c(c(O)c2[C@@H](O[C@@H]2O[C@@H](C)[C@H](OC)[C@@](C)(OC)[C@H]2OC)C[C@]1(C)O)C(=O)c1c(O)cc2c(c1C3=O)O[C@@H]1O[C@@]2(C)[C@H](O)[C@@H](N(C)C)[C@@H]1O [Nogalomycin] | – | All save nogalomycin bind | Kd [1, 4]: > 1000 µM |
| CCN(CC)CCCC(C)Nc1c2ccc(Cl)cc2nc2ccc(OC)cc12 (centres unmarked) [Quinacrine] | – | high affinity | – |
| CN(C)[C@@H]1C(=O)C(C(N)=O)=C(O)[C@@]2(O)C(=O)C3=C(O)c4c(O)cccc4[C@@](C)(O)[C@H]3C[C@@H]12 [Tetracycline] | > 250 | neither tetracycline nor carminic acid (an insect feeding deterrent) bind | – |
| Cc1cc2nc3c(=O)[nH]c(=O)nc-3n(C[C@H](O)[C@H](O)[C@H](O)CO)c2cc1C [riboflavin] | – | no compound is more tightly bound by the egg binding protein than riboflavin | – |
